In the NIST ThermoML archive (doi:10.1021/je400178k):

Test: molar heat capacity at constant pressure; xn = mol fraction of the nth substance listed
Settings: 101 kPa, Liquid, Small sample (50 mg) DSC

CN1CCN(C)CC1 [1,4-dimethylpiperazine] + O
molar heat capacity at constant pressure [J/K/mol]
Settings | x1 = 0.1 | x1 = 0.2007 | x1 = 0.2992 | x1 = 0.4011 | x1 = 0.5 | x1 = 0.6015 | x1 = 0.6993 | x1 = 0.799 | x1 = 0.8983 | x1 = 1
298.15 K | 108.6 | 122.7 | 135.3 | 148.5 | 159.8 | 171.1 | 183.7 | 195.4 | 206.1 | 216.5
303.15 K | 110.2 | 124.5 | 137.6 | 150.9 | 162.6 | 174.8 | 188.1 | 199.9 | 211.3 | 221.7
308.15 K | 111.1 | 125.9 | 139.7 | 152.3 | 164.9 | 176.4 | 189.9 | 202.1 | 212.6 | 222.1
313.15 K | 112 | 127.8 | 141.9 | 154.4 | 166.7 | 178.5 | 192.3 | 204.4 | 214.6 | 223.4
318.15 K | 113 | 129.8 | 144.1 | 156.5 | 169 | 180.6 | 194.4 | 206.7 | 216.5 | 224.6
323.15 K | 114.3 | 132.1 | 146.3 | 158.2 | 171 | 182.5 | 196.6 | 208.8 | 218 | 225.3
328.15 K | 115.5 | 134.5 | 148.7 | 160.6 | 172.7 | 184.8 | 198.7 | 210.8 | 219.8 | 225.7
333.15 K | 116.4 | 136.4 | 151.5 | 163.3 | 174.8 | 186.4 | 200.6 | 213.1 | 221.6 | 227.5
338.15 K | 117.4 | 137.7 | 153.5 | 165.8 | 177.1 | 188.5 | 202.8 | 215.2 | 223.5 | 228.5
343.15 K | 118.4 | 139.3 | 156.2 | 169 | 179.7 | 191.4 | 205.4 | 217.7 | 225.5 | 229.6
348.15 K | 119.5 | 141 | 157.8 | 171.3 | 182.6 | 194.4 | 208.5 | 220.6 | 227.9 | 231.7
353.15 K | 120.8 | 142.4 | 159.4 | 173.6 | 185.7 | 198.7 | 213.5 | 225.5 | 233.5 | 235.9

OCCN1CCOCC1 [4-morpholineethanol] + O
molar heat capacity at constant pressure [J/K/mol]
Settings | x1 = 0.0998 | x1 = 0.1985 | x1 = 0.2979 | x1 = 0.3969 | x1 = 0.4952 | x1 = 0.6017 | x1 = 0.7031 | x1 = 0.7657 | x1 = 0.8977 | x1 = 1
298.15 K | 101 | 120.8 | 140.3 | 159.5 | 177.4 | 195.6 | 212.8 | 223.5 | 246.5 | 263.9
303.15 K | 102.4 | 123.6 | 142.6 | 162.4 | 180 | 198 | 214.7 | 226 | 248.4 | 265.3
308.15 K | 103.8 | 125.7 | 144.6 | 165 | 182.6 | 200.3 | 217.1 | 228.3 | 250.8 | 267.1
313.15 K | 105.4 | 127.9 | 146.7 | 167.8 | 185.5 | 203 | 219.7 | 230.8 | 253.1 | 269.2
318.15 K | 107.2 | 130.4 | 148.9 | 171 | 188.6 | 205.9 | 222.5 | 233.3 | 255 | 270.8
323.15 K | 109 | 133 | 152.3 | 174.4 | 191.8 | 208.7 | 225.5 | 235.8 | 257 | 272.6
328.15 K | 111.4 | 136 | 156.3 | 178.4 | 195.5 | 211.8 | 228.7 | 238.6 | 259.1 | 274.3
333.15 K | 114.2 | 139.3 | 160.3 | 183 | 199.7 | 215.6 | 232.5 | 242.5 | 261.7 | 276.2
338.15 K | 117.4 | 143.2 | 165 | 188.6 | 204.6 | 220.1 | 237 | 246.3 | 264.7 | 278.7
343.15 K | 121.1 | 147.7 | 170.6 | 194.6 | 209.9 | 225.4 | 241.6 | 250.3 | 267.9 | 281
348.15 K | 125.9 | 152.9 | 178.7 | 201.6 | 215.9 | 231 | 246.6 | 254.8 | 271.2 | 283.2
353.15 K | 131.9 | 159.5 | 187 | 209.9 | 222.5 | 236.4 | 252.2 | 259.4 | 274.8 | 284.9

OCCN1CCNCC1 [N-(2-hydroxyethyl)piperazine] + O
molar heat capacity at constant pressure [J/K/mol]
Settings | x1 = 0.0999 | x1 = 0.2 | x1 = 0.2921 | x1 = 0.3916 | x1 = 0.4896 | x1 = 0.6011 | x1 = 0.6947 | x1 = 0.7952 | x1 = 0.8939 | x1 = 1
298.15 K | 104.2 | 126.9 | 145.8 | 165.4 | 184.7 | 206.4 | 224.8 | 244.6 | 264.2 | 285
303.15 K | 105.7 | 129.2 | 149.2 | 169.1 | 188.3 | 210.1 | 228.7 | 248.9 | 268.8 | 289.9
308.15 K | 107.1 | 131.5 | 151.9 | 171.5 | 191 | 212.7 | 231.4 | 251.8 | 271.6 | 292.9
313.15 K | 108.6 | 133.9 | 154.8 | 174.4 | 194.1 | 215.8 | 234.5 | 254.5 | 274.4 | 296
318.15 K | 110.4 | 136.1 | 157.5 | 177.5 | 196.8 | 218.2 | 237.1 | 257.2 | 277.2 | 298.9
323.15 K | 112.2 | 139 | 160.7 | 179.9 | 199.4 | 220.7 | 239.6 | 259.8 | 279.8 | 301.7
328.15 K | 114.3 | 142.3 | 164.2 | 182.4 | 202 | 223.7 | 242.6 | 262.7 | 282.8 | 305
333.15 K | 115.7 | 144.9 | 167.3 | 185.7 | 204.7 | 226.3 | 245.3 | 265.5 | 285.7 | 308.1
338.15 K | 118.5 | 148 | 170.6 | 188.1 | 207.5 | 229.1 | 248.2 | 268.2 | 288.4 | 311
343.15 K | 120.8 | 150.6 | 173.3 | 190.9 | 210.1 | 232 | 250.8 | 270.8 | 291.1 | 313.9
348.15 K | 122.5 | 153 | 175.6 | 194 | 212.8 | 234.8 | 253.5 | 273.3 | 293.6 | 316.5
353.15 K | 124 | 155.5 | 177.9 | 197.6 | 215.5 | 237.5 | 256.1 | 275.8 | 296.1 | 319
